pIC50: −log10 of the molar value.
Each molecule was assayed against T1, EphB2-EphrinB2 (Mus musculus, UniProt P54763) (assay: Octet, immobilized mouse EphB2 binding to mouse EphrinB2). Conditions: Absolute Association IC50, mEphB2-mEphrinB2; immobilized mouse EphB2; 50 nM soluble mouse EphrinB2; association; absolute.
T1 sequence (P54763 19-543 limits assumed): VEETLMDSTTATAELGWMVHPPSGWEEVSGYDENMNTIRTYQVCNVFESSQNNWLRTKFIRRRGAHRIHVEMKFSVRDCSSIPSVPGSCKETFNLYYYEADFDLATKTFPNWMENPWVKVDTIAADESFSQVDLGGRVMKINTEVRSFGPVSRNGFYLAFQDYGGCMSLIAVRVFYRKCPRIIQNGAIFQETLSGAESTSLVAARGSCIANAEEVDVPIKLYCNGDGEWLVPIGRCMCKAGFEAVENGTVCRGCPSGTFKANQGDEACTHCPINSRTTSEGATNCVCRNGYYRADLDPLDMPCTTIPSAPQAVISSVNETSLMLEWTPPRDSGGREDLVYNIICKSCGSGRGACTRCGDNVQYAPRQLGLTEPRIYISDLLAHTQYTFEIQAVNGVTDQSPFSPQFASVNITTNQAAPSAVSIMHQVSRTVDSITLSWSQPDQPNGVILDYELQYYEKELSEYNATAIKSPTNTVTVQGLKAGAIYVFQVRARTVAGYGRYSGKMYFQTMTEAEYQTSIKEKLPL
Text: (§1) The novel compound A20-I is a halogen replacement that changes the 7-bromine in A20 for iodine and had enhanced tetramerization inhibitor activity (FIGS. 38A-38D). This is evident when comparing results of A20-I and A20 salt compounds on the interaction of immobilized mouse EphB2 ectodomain binding to soluble mouse EphrinB2 ectodomain (FIG. 38A and FIG. 38B) or soluble human EphrinA5 (FIG. 38C). […] During these interactions of immobilized EphB ectodomains binding to soluble EphrinB2, the tetramer is much more surmountable by addition of an active compound than for the reverse experiment where EphrinB2 is immobilized and EphB2 is the soluble component in the assay (see FIG. 11, FIG. 17, and FIG. 25A-FIG. 25C). It is believed that the more resistant unsurmountable tetramer formed by immobilized EphrinB2 binding to soluble EphB ectodomains provides for the most rigorous test for determining IC50 values and thus utilizing this EphrinB2-EphB2 assay for analysis of all compounds, provide uniformity in observed results. The results described herein with A20-I and using the human EphrinB2-EphB2 interaction indicates replacements can be made in the 7-bromine in A20 that lead to enhanced tetramerization inhibitor activity.

| Compound | pIC50 |
| --- | --- |
| O=[N+]([O-])c1cc(CN2CCOCC2)c2cccnc2c1O [Compound 10, 4-((8-hydroxy-7-nitroquinolin-1-ium-5-yl)methyl)morpholin-4-ium chloride] | > 5.00 |
| Oc1c(Br)cc(CN2CCOCC2)c2cccnc12 [Compound 6, 4-((7-bromo-8-hydroxyquinolin-1-ium-5-yl)methyl)morpholin-4-ium chloride] | 5.53 |

Same assay, conditions: Absolute Dissociation IC50, mEphB2-mEphrinB2; immobilized mouse EphB2; 50 nM soluble mouse EphrinB2; dissociation; absolute

| Compound | pIC50 |
| --- | --- |
| O=[N+]([O-])c1cc(CN2CCOCC2)c2cccnc2c1O [Compound 10, 4-((8-hydroxy-7-nitroquinolin-1-ium-5-yl)methyl)morpholin-4-ium chloride] | > 5.00 |
| Oc1c(Br)cc(CN2CCOCC2)c2cccnc12 [Compound 6, 4-((7-bromo-8-hydroxyquinolin-1-ium-5-yl)methyl)morpholin-4-ium chloride] | 6.17 |

Same assay, conditions: Relative Association IC50, mEphB2-mEphrinB2; immobilized mouse EphB2; 50 nM soluble mouse EphrinB2; association; relative

| Compound | pIC50 |
| --- | --- |
| O=[N+]([O-])c1cc(CN2CCOCC2)c2cccnc2c1O [Compound 10, 4-((8-hydroxy-7-nitroquinolin-1-ium-5-yl)methyl)morpholin-4-ium chloride] | > 5.00 |
| Oc1c(Br)cc(CN2CCOCC2)c2cccnc12 [Compound 6, 4-((7-bromo-8-hydroxyquinolin-1-ium-5-yl)methyl)morpholin-4-ium chloride] | 5.98 |

Same assay, conditions: Relative Dissociation IC50, mEphB2-mEphrinB2; immobilized mouse EphB2; 50 nM soluble mouse EphrinB2; dissociation; relative

| Compound | pIC50 |
| --- | --- |
| O=[N+]([O-])c1cc(CN2CCOCC2)c2cccnc2c1O [Compound 10, 4-((8-hydroxy-7-nitroquinolin-1-ium-5-yl)methyl)morpholin-4-ium chloride] | > 5.00 |
| Oc1c(Br)cc(CN2CCOCC2)c2cccnc12 [Compound 6, 4-((7-bromo-8-hydroxyquinolin-1-ium-5-yl)methyl)morpholin-4-ium chloride] | 6.30 |

These molecules were tested against T2, EphB2-EphrinA5 (Mus musculus, UniProt P54763) (assay: Octet, immobilized EphB2 binding to human EphrinA5). Conditions: mEphB2-hEphrinA5; immobilized mouse EphB2; 50 nM soluble human EphrinA5; association; absolute; read-out: Absolute Association IC50.
T2 sequence (P54763 19-543 limits assumed): T1 sequence (P54763 19-543 limits assumed)
Experimental: The Octet system was used to probe the interactions of epitope-tagged human A class proteins, focusing on immobilized EphA3 binding to two of its cognate ligands, EphrinA1 and EphrinA5, as well as EphB2 binding to EphrinA5 (FIG. 27). […] Focusing on the dimerization-driven EphA3-EA5 interaction first (green sensorgram trace), which mimics what is disclosed above for EphB4-EB2, the initial binding of soluble EphrinA5 to the immobilized EphA3 is very fast and strong with a long and steep 84° slope of response that then quickly bends around 35 sec into the association step to form a more gradual tetramerization accumulation slope. […] However, again like the EphB4-EB2 interaction, once placed into dissociation, a significant fraction of the bound EA5 protein melts quickly and the off phase continues downward with a slow gradual decline in bound protein. Although the dissociation was for only 500 sec, the continued downward slope of the response indicates most of the bound EA5 protein would eventually melt off of the immobilized EphA3 protein. This is referred to as a classic dimerization-driven interaction, fast and strong initial binding in the association step but with most of the bound protein coming off in the dissociation due to lack of formation of stable tetramers. EphA3 interacts with EphrinA1 with totally different kinetics/dynamics (orange sensorgram trace). Here, the initial high 84° dimerization slope phase is extremely brief (5 sec) with the binding quickly snapping into a linear tetramerization accumulation phase with a 25° slope, and that once placed into dissociation step almost no bound protein melts, just the small amount that would represent dimer interactions falling off in the first few seconds after being placed into dissociation. […] EphB2 interacting with EA5 is similar to the EphA3-EA1 interaction, in that the association step is characterized by a very brief (5 sec) high 84° slope phase that quickly bends into a more gradual tetramer accumulation phase (blue sensorgram trace). […] The strong initial off phase of the EphB2-EA5 complexes in the dissociation represents both the melting of weak dimers and of the relatively weaker affinity tetramers formed by the cross A/B class EphB2-EA5 molecules. […]
as §1

| Compound | pIC50 |
| --- | --- |
| O=[N+]([O-])c1cc(CN2CCOCC2)c2cccnc2c1O [Compound 10, 4-((8-hydroxy-7-nitroquinolin-1-ium-5-yl)methyl)morpholin-4-ium chloride] | 5.37 |
| Oc1c(Br)cc(CN2CCOCC2)c2cccnc12 [Compound 6, 4-((7-bromo-8-hydroxyquinolin-1-ium-5-yl)methyl)morpholin-4-ium chloride] | 6.24 |

Same assay, conditions: mEphB2-hEphrinA5; immobilized mouse EphB2; 50 nM soluble human EphrinA5; association; relative; read-out: Relative Association IC50

| Compound | pIC50 |
| --- | --- |
| O=[N+]([O-])c1cc(CN2CCOCC2)c2cccnc2c1O [Compound 10, 4-((8-hydroxy-7-nitroquinolin-1-ium-5-yl)methyl)morpholin-4-ium chloride] | 5.54 |

Same assay, conditions: mEphB2-hEphrinA5; immobilized mouse EphB2; 50 nM soluble human EphrinA5; dissociation; absolute; read-out: Absolute Dissociation IC50

| Compound | pIC50 |
| --- | --- |
| O=[N+]([O-])c1cc(CN2CCOCC2)c2cccnc2c1O [Compound 10, 4-((8-hydroxy-7-nitroquinolin-1-ium-5-yl)methyl)morpholin-4-ium chloride] | 4.00 |
| Oc1c(Br)cc(CN2CCOCC2)c2cccnc12 [Compound 6, 4-((7-bromo-8-hydroxyquinolin-1-ium-5-yl)methyl)morpholin-4-ium chloride] | > 6.00 |

Same assay, conditions: mEphB2-hEphrinA5; immobilized mouse EphB2; 50 nM soluble human EphrinA5; dissociation; relative; read-out: Relative Dissociation IC50

| Compound | pIC50 |
| --- | --- |
| O=[N+]([O-])c1cc(CN2CCOCC2)c2cccnc2c1O [Compound 10, 4-((8-hydroxy-7-nitroquinolin-1-ium-5-yl)methyl)morpholin-4-ium chloride] | 4.00 |

The molecules below were run against T3, EphB4-EphrinB2 (Mus musculus, UniProt P54761) (assay: Octet RED384, immobilized mouse EphB4-Fc binding to mouse EB2-His). Conditions: mEphB4-mEphrinB2; immobilized mouse EphB4; 50 nM soluble mouse EphrinB2; association; absolute; read-out: Absolute Association IC50.
T3 construct: biosensor immobilized rodent EphB1-Fc and EphB4-Fc ectodomain proteins; mouse EB2-His residues 18-232; purchased R&D Systems (EphB-Fc); Sino Biologicals (EphrinB-His)
T3 sequence (P54761 16-539 limits assumed): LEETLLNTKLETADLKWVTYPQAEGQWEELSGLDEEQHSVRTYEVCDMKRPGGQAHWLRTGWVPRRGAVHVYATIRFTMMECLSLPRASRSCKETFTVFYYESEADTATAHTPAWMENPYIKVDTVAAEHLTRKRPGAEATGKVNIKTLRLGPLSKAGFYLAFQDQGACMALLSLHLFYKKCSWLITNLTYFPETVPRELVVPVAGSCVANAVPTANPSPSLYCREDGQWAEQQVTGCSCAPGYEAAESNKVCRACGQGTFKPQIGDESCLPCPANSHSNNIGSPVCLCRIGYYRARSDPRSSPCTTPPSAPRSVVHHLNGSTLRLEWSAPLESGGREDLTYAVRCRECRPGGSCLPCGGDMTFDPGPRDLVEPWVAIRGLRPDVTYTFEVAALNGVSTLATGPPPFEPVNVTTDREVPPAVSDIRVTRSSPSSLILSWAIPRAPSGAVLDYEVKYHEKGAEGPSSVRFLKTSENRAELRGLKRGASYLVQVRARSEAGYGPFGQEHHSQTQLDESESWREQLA
Experimental: […] Association time was for 400 sec and dissociation time was for 500 sec. Binding assays were conducted in PBS containing 0.05% Tween-20 and 1% DMSO.

| Compound | pIC50 |
| --- | --- |
| O=[N+]([O-])c1cc(CN2CCOCC2)c2cccnc2c1O [Compound 10, 4-((8-hydroxy-7-nitroquinolin-1-ium-5-yl)methyl)morpholin-4-ium chloride] | 4.00 |
| Oc1c(Br)cc(CN2CCOCC2)c2cccnc12 [Compound 6, 4-((7-bromo-8-hydroxyquinolin-1-ium-5-yl)methyl)morpholin-4-ium chloride] | 4.00 |

Same assay, conditions: mEphB4-mEphrinB2; immobilized mouse EphB4; 50 nM soluble mouse EphrinB2; association; relative; read-out: Relative Association IC50

| Compound | pIC50 |
| --- | --- |
| O=[N+]([O-])c1cc(CN2CCOCC2)c2cccnc2c1O [Compound 10, 4-((8-hydroxy-7-nitroquinolin-1-ium-5-yl)methyl)morpholin-4-ium chloride] | 5.20 |
| Oc1c(Br)cc(CN2CCOCC2)c2cccnc12 [Compound 6, 4-((7-bromo-8-hydroxyquinolin-1-ium-5-yl)methyl)morpholin-4-ium chloride] | 6.66 |

Same assay, conditions: mEphB4-mEphrinB2; immobilized mouse EphB4; 50 nM soluble mouse EphrinB2; dissociation; absolute; read-out: Absolute Dissociation IC50

| Compound | pIC50 |
| --- | --- |
| O=[N+]([O-])c1cc(CN2CCOCC2)c2cccnc2c1O [Compound 10, 4-((8-hydroxy-7-nitroquinolin-1-ium-5-yl)methyl)morpholin-4-ium chloride] | 5.58 |
| Oc1c(Br)cc(CN2CCOCC2)c2cccnc12 [Compound 6, 4-((7-bromo-8-hydroxyquinolin-1-ium-5-yl)methyl)morpholin-4-ium chloride] | 6.39 |

Same assay, conditions: mEphB4-mEphrinB2; immobilized mouse EphB4; 50 nM soluble mouse EphrinB2; dissociation; relative; read-out: Relative Dissociation IC50

| Compound | pIC50 |
| --- | --- |
| O=[N+]([O-])c1cc(CN2CCOCC2)c2cccnc2c1O [Compound 10, 4-((8-hydroxy-7-nitroquinolin-1-ium-5-yl)methyl)morpholin-4-ium chloride] | 5.62 |
| Oc1c(Br)cc(CN2CCOCC2)c2cccnc12 [Compound 6, 4-((7-bromo-8-hydroxyquinolin-1-ium-5-yl)methyl)morpholin-4-ium chloride] | 6.66 |

From patent publication US20260374739A1, “SMALL MOLECULAR WEIGHT CHEMICAL COMPOUND TO ANTAGONIZE EPH-EPHRIN TETRAMERIZATION AND INHIBIT BIDIRECTIONAL SIGNALING” (THE BOARD OF REGENTS OF THE UNIVERSITY OF TEXAS SYSTEM, priority 2022, published 2026)
